Experimental data: patent US20250368649A1, “TETRAHYDROPYRIDOPYRIMIDINE PAN-KRAS INHIBITORS” (Mirati Therapeutics, Inc., priority 2022, published 2025)

Experiments:
[1] = tested on: ASPC1 cells; test: Inhibition of KRas-mediated phosphorylation of ERK (Cisbio HTRF pERK), ASPC1 cells; type: cell-based; conditions: Homo sapiens, ASPC1, 3 h, AsPC-1 cells; 3 hr compound incubation; Cisbio pERK HTRF
[2] = target: KRas G12V (Homo sapiens, UniProt P01116, G12V); test: biochemical; conditions: Binding to KRas (IC50 nM) G12V, TR-FRET displacement, KRas G12V
[3] = target: KRas Q61H (Homo sapiens, UniProt P01116, Q61H); test: KRas binding assay (TR-FRET displacement), KRas Q61H; conditions: for inhibition at 0.01 µM: single point, 10 nM compound
[4] = target: KRas G13D (Homo sapiens, UniProt P01116, G13D); type: binding; conditions: for inhibition at 0.01 µM: single point, 10 nM compound, read-out: Binding to KRas (% inhibition at 10 nM) G13D
[5] = target: KRas G12R (Homo sapiens, UniProt P01116, G12R); test: biochemical; conditions: Binding to KRas (IC50 nM) G12R, TR-FRET displacement, KRas G12R
[6] = tested on: MKN1 cells; test: Inhibition of KRas-mediated phosphorylation of ERK (Cisbio HTRF pERK), MKN1 cells; type: cell-based; conditions: Homo sapiens, MKN-1, 3 hour compound incubation, Cisbio pERK HTRF
Method in brief: (§1)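 Seeding density of 6,000 cells per well was used, with cultures kept in RPMI/10% FBS from day 1.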

[7] = tested on: PSN1 cells; test: Inhibition of KRas-mediated phosphorylation of ERK (Cisbio HTRF pERK), PSN1 cells; type: cell-based; conditions: Homo sapiens, PSN1, 3 h, 3 hour compound incubation, Cisbio pERK HTRF
Method in brief: as §1

[8] = tested on: H727 cells; test: Inhibition of KRas-mediated phosphorylation of ERK (Cisbio HTRF pERK), H727 cells; type: cell-based; conditions: Homo sapiens, NCI-H727, 3 h, 3 hr compound incubation, Cisbio pERK HTRF
[9] = target: KRas WT (Homo sapiens, UniProt P01116); test: KRas binding assay (TR-FRET displacement), KRas WT; conditions: for inhibition at 0.01 µM: single point, 10 nM compound
[10] = target: KRas G12C (Homo sapiens, UniProt P01116, G12C); type: binding; conditions: for inhibition at 0.01 µM: single point, 10 nM compound, read-out: Binding to KRas (% inhibition at 10 nM) G12C
[11] = tested on: H460 cells; test: Inhibition of KRas-mediated phosphorylation of ERK (Cisbio HTRF pERK), H460 cells; type: cell-based; conditions: Homo sapiens; for IC50: NCI-H460, 3 h, 3 hr compound incubation, Cisbio pERK HTRF
[12] = target: KRas G12S (Homo sapiens, UniProt P01116, G12S); type: binding; conditions: for inhibition at 0.01 µM: single point, 10 nM compound, read-out: Binding to KRas (% inhibition at 10 nM) G12S
[13] = target: KRas G12D (Homo sapiens, UniProt P01116, G12D); test: biochemical; conditions: Binding to KRas (IC50 nM) G12D, TR-FRET displacement, KRas G12D
[14] = tested on: A549 cells; test: Inhibition of KRas-mediated phosphorylation of ERK (Cisbio HTRF pERK), A549 cells; type: cell-based; conditions: Homo sapiens; for IC50: A549, 3 h, 3 hr compound incubation, Cisbio pERK HTRF
[15] = tested on: H358 cells; test: Inhibition of KRas-mediated phosphorylation of ERK (Cisbio HTRF pERK), H358 cells; type: cell-based; conditions: Homo sapiens, NCI-H358, single point at 100 nM, 3 hrs compound incubation
[16] = target: KRas G12A (Homo sapiens, UniProt P01116, G12A); type: binding; conditions: for inhibition at 0.01 µM: single point, 10 nM compound, read-out: Binding to KRas (% inhibition at 10 nM) G12A
[17] = tested on: HCT116 cells; test: Inhibition of KRas-mediated phosphorylation of ERK (Cisbio HTRF pERK), HCT116 cells; type: cell-based; conditions: Homo sapiens; for IC50: HCT-116, 3 h, 3 hr compound incubation, Cisbio pERK HTRF

KRas G12R, sequence (P01116 1-169 isoform P01116-2 G12R): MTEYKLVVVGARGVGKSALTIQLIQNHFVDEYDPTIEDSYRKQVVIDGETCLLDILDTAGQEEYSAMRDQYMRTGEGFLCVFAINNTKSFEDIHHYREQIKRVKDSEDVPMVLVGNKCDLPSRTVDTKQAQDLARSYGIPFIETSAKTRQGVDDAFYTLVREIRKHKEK
KRas G12D, sequence (P01116 1-169 isoform P01116-2 G12D): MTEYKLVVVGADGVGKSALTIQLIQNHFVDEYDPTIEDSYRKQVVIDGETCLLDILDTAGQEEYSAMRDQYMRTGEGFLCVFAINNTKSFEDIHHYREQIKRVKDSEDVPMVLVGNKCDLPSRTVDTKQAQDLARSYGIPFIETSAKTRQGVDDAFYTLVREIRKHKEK
KRas Q61H, sequence (P01116 1-169 isoform P01116-2 Q61H): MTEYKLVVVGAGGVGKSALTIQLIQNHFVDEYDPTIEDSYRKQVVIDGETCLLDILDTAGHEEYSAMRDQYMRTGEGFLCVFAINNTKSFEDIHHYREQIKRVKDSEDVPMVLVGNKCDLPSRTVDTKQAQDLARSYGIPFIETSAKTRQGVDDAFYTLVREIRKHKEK
KRas G12S, sequence (P01116 1-169 isoform P01116-2 G12S): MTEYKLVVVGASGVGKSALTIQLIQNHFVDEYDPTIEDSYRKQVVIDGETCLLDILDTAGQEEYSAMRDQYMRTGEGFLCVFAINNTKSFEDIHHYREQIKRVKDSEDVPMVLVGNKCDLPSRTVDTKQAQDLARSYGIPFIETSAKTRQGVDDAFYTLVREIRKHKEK
KRas G12C, sequence (P01116 1-169 isoform P01116-2 G12C): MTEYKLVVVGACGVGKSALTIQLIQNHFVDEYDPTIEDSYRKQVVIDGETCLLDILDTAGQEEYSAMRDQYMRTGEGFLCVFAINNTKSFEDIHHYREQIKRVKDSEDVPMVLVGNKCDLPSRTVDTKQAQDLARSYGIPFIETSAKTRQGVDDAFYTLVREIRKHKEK
KRas G12A, sequence (P01116 1-169 isoform P01116-2 G12A): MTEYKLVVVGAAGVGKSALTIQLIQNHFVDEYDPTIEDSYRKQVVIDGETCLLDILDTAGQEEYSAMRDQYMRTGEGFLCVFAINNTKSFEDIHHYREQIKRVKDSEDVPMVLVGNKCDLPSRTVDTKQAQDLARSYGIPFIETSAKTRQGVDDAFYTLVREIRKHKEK
KRas WT, sequence (P01116 1-169 isoform P01116-2): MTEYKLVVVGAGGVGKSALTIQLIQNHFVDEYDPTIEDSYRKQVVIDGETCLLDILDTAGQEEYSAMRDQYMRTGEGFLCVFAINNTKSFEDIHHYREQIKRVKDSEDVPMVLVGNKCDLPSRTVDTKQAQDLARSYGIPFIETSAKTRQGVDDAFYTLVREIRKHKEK
KRas G13D, sequence (P01116 1-169 isoform P01116-2 G13D): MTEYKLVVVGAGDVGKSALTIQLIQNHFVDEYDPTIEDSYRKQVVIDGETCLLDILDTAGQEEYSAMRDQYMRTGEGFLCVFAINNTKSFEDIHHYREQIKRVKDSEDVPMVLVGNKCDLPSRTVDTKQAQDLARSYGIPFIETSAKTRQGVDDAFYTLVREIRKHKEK
KRas G12V, sequence (P01116 1-169 isoform P01116-2 G12V): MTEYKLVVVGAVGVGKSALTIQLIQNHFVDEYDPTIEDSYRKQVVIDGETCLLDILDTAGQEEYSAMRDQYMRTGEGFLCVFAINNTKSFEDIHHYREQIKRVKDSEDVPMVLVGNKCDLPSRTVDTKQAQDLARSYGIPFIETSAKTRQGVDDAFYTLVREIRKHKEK

Structure (SMILES)	IC50 [1] [nM]	IC50 [2] [nM]	inhibition at 0.01 µM [3] [%]	inhibition at 0.01 µM [4] [%]	IC50 [5] [nM]	IC50 [6] [nM]	IC50 [7] [nM]	IC50 [8] [nM]	inhibition at 0.01 µM [9] [%]	inhibition at 0.01 µM [10] [%]	IC50 [11] [nM]	inhibition at 0.01 µM [12] [%]	IC50 [13] [nM]	inhibition at 0.01 µM [16] [%]	IC50 [14] [nM]	IC50 [17] [nM]	also measured
CCc1c(F)ccc2cc(O)cc(N3CCc4c(nc(OC[C@@]56CCCN5C[C@H](F)C6)nc4N4CCCn5nc(NC)c(C)c5C4)C3)c12 [Example 376, 5-ethyl-6-fluoro-4-(2-(((2R,7aS)-2-fluorohexahydro-1H-pyrrolizin-7a-yl)methoxy)-4-(3-methyl-2-(methylamino)-7,8-dihydro-4H-pyrazolo[1,5-a][1,4]diazepin-5(6H)-yl)-5,6-dihydropyrido[3,4-d]pyrimidin-7(8H)-yl)naphthalen-2-ol]	55	4	51	61	3	76.1	> 10000	124	53	78	112	70	4	54			inhibition at 0.1 µM ([14]; single point at 100 nM, 3 hrs compound incubation): 34%; inhibition at 0.1 µM [15]: 70%
CCNc1cc2n(n1)CCCN(c1nc(OC[C@@]34CCCN3C[C@H](F)C4)nc3c1CCN(c1cc(O)cc4ccc(F)c(CC)c14)C3)C2 [Example 412, 5-ethyl-4-(4-(2-(ethylamino)-7,8-dihydro-4H-pyrazolo[1,5-a][1,4]diazepin-5(6H)-yl)-2-(((2R,7aS)-2-fluorohexahydro-1H-pyrrolizin-7a-yl)methoxy)-5,6-dihydropyrido[3,4-d]pyrimidin-7(8H)-yl)-6-fluoronaphthalen-2-ol]	96	< 2	61	60	< 2	1.7	> 10000	72	62	83	207	76	< 2	62	213	614	
CCc1c(F)ccc2cc(O)cc(N3CCc4c(nc(OC[C@@]56CCCN5C[C@H](F)C6)nc4N4CCCn5nc6c(c5C4)CCCNC6=O)C3)c12 [Example 415, 2-(7-(8-ethyl-7-fluoro-3-hydroxynaphthalen-1-yl)-2-(((2R,7aS)-2-fluorohexahydro-1H-pyrrolizin-7a-yl)methoxy)-5,6,7,8-tetrahydropyrido[3,4-d]pyrimidin-4-yl)-2,3,4,5,9,10,11,12-octahydroazepino[3′,4′:3,4]pyrazolo[1,5-a][1,4]diazepin-8(1H)-one]	26	< 2	100	99	< 2	16	1980	28	99	100	171	100	< 2	100	134	504	
CCc1c(F)ccc2cc(O)cc(N3CCc4c(nc(OC[C@@]56CCCN5C[C@H](F)C6)nc4N4CCCC5(CC(=O)NC5=O)C4)C3)c12 (stereo partly drawn) [Example 419, 7-(7-(8-ethyl-7-fluoro-3-hydroxynaphthalen-1-yl)-2-(((2R,7aS)-2-fluorohexahydro-1H-pyrrolizin-7a-yl)methoxy)-5,6,7,8-tetrahydropyrido[3,4-d]pyrimidin-4-yl)-2,7-diazaspiro[4.5]decane-1,3-dione]	40	< 2	90	82	< 2	6	194	37	62	83	20	72	< 2	54	9	38	
CCc1c(F)ccc2cc(O)cc(N3CCc4c(nc(OC[C@@]56CCCN5C[C@H](F)C6)nc4N4CCCOCC4)C3)c12 [Example 420, 5-ethyl-6-fluoro-4-(2-(((2R,7aS)-2-fluorohexahydro-1H-pyrrolizin-7a-yl)methoxy)-4-(1,4-oxazepan-4-yl)-5,6-dihydropyrido[3,4-d]pyrimidin-7(8H)-yl)naphthalen-2-ol]	66	< 2	97	95	< 2	5.8	2740	38	95	98	38	97	< 2	96	24	143	
CCc1c(F)ccc2cc(O)cc(N3CCc4c(nc(OC[C@@]56CCCN5C[C@H](F)C6)nc4N4Cc5cn(C(=O)N(C)C)nc5CC(C)C4)C3)c12 (stereo partly drawn) [Example 422, 5-(7-(8-ethyl-7-fluoro-3-hydroxynaphthalen-1-yl)-2-(((2R,7aS)-2-fluorohexahydro-1H-pyrrolizin-7a-yl)methoxy)-5,6,7,8-tetrahydropyrido[3,4-d]pyrimidin-4-yl)-N,N,7-trimethyl-5,6,7,8-tetrahydropyrazolo[4,3-c]azepine-2(4H)-carboxamide]	163	< 2	62	55	3	189	> 10000	78	58	72	169	60	2	55	147	616	
CCc1c(F)ccc2cccc(N3CCc4c(nc(OC[C@@]56CCCN5C[C@H](F)C6)nc4N4CCCn5nc(C(=O)N(C)C)cc5C4)C3)c12 [Example 481, 5-(7-(8-ethyl-7-fluoronaphthalen-1-yl)-2-(((2R,7aS)-2-fluorohexahydro-1H-pyrrolizin-7a-yl)methoxy)-5,6,7,8-tetrahydropyrido[3,4-d]pyrimidin-4-yl)-N,N-dimethyl-5,6,7,8-tetrahydro-4H-pyrazolo[1,5-a][1,4]diazepine-2-carboxamide]	106	2			6	480	> 10000	194					< 2		285		IC50 ([3]; TR-FRET displacement): 13 nM; IC50 ([4]; TR-FRET displacement, read-out: Binding to KRas (IC50 nM) G13D): 15 nM; IC50 ([9]; TR-FRET displacement): 11 nM; IC50 ([10]; TR-FRET displacement, read-out: Binding to KRas (IC50 nM) G12C): 4 nM; inhibition at 0.1 µM ([11]; NCI-H460, single point at 100 nM, 3 hrs compound incubation): -1%; IC50 ([12]; TR-FRET displacement, read-out: Binding to KRas (IC50 nM) G12S): 5 nM; inhibition at 0.1 µM ([17]; HCT-116, single point at 100 nM, 3 hrs compound incubation): 8%; IC50 ([16]; TR-FRET displacement, read-out: Binding to KRas (IC50 nM) G12A): 7 nM
